# Read-outs that look alike come from different tables or passages of the source. Square brackets hold non-standard residues; d marks the D form. Peptide text beside a SMILES is read from it. * marks the point of attachment. X1 = O=C1CN2CCN3CCN(CC(=O)*)CCN(CC2)CC(=O)O[CH2][Lu]([CH2]CO1)[CH2]COC(=O)C3; boroPro = OB(O)[C@@H]1CCCN1*
# Tests used:
# [1] = target: recombinant human prolyl oligopeptidase (PREP) (Homo sapiens (Human), UniProt P48147); test: In vitro assay prolyl oligopeptidase IC50 (Example 21); assay type: biochemical
# Chain of recombinant human prolyl oligopeptidase (PREP) (P48147 whole entry): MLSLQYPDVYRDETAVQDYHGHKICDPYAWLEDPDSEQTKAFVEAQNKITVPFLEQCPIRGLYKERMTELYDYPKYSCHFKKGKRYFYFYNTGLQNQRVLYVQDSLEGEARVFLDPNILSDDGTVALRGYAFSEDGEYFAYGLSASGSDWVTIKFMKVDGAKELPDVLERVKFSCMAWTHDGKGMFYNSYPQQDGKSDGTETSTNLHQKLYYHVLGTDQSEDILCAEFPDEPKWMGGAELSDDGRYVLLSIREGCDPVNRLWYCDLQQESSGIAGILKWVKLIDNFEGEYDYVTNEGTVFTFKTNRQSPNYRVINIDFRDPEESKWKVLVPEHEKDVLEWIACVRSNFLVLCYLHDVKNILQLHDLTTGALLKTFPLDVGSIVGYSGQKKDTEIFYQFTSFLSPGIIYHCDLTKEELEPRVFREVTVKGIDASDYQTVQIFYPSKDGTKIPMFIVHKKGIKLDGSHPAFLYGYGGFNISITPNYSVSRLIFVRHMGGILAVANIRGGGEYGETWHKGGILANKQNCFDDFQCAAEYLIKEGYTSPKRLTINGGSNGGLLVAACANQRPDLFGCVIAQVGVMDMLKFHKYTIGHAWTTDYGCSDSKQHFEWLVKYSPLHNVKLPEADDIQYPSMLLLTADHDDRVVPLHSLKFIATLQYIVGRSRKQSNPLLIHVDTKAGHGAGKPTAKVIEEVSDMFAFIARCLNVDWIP
# [2] = target: recombinant human dipeptidyl peptidase IV (DPPIV) (Homo sapiens (Human), UniProt P27487); test: In vitro assay dipeptidyl peptidase IV IC50 (Example 21); assay type: biochemical
# Chain of recombinant human dipeptidyl peptidase IV (DPPIV) (P27487 whole entry): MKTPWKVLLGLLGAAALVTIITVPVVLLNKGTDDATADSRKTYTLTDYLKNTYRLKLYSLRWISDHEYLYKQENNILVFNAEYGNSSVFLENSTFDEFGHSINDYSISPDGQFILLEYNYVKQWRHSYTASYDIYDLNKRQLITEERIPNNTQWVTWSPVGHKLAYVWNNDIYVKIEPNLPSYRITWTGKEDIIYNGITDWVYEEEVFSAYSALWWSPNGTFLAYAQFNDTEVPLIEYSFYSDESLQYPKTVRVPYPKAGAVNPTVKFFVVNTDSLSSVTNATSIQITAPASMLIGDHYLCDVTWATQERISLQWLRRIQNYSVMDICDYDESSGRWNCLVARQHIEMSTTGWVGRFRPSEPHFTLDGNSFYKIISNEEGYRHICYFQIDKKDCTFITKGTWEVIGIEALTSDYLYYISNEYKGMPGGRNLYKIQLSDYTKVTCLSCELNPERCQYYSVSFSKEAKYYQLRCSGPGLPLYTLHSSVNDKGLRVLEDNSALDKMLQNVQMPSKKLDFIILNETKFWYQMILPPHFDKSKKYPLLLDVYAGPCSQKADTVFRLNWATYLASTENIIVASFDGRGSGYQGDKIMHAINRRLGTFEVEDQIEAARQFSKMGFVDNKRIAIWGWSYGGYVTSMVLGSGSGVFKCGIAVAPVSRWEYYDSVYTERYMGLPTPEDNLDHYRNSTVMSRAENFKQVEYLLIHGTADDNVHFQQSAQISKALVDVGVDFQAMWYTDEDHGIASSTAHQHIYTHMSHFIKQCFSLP
# Protocol: The purpose of this assay is to determine the IC50 of various inhibitors against recombinant human dipeptidyl peptidase IV (DPPIV), fibroblast activation protein (FAP) or prolyl oligopeptidase (PREP).
# The assays are conducted in the following steps: • 1 Dissolve the compound in DMSO to a final concentration of 100 mM. From this, prepare a 1 mM stock at pH 7.5 in 50 mM Tris, 140 mM NaCl Buffer (FAP)/pH 7.5 in 25 mM Tris, 250 mM NaCl Buffer/[…]. • 2. Serial dilute (1:10) the 1 mM compound stocks prepared previously into the appropriate assay buffer (FAP: 50 mM Tris, 140 mM NaCl, pH 7.5/PREP: 25 mM Tris, 0.25 M NaCl, pH 7.5/DPPIV: 25 mM Tris, pH 8.0) to one row of a 96-well plate. • 3. […] Dilute the enzymes into their appropriate assay buffers. The final enzyme concentrations should be 0.1, 1.2, and 0.6 nM for DPPIV, FAP and PREP respectively. Add 180 μL to each well needed in columns 2-10. Column 1(A,B,C) should be prepared with 200 μl of appropriate assay buffer as control. Column 1(D,E,F,G,H) should be prepared with 20 μl of appropriate assay buffer and 180 ul enzyme as no inhibitor control. • 5. Add 20 μL of the compound of interest from the dilution plate prepared in step 2 to columns 2-10 of the assay plate where appropriate. Each sample should be tested in triplicate. Allow this to incubate for 10 minutes at room temperature, shaking the plate for the first two minutes. • 6. Add 10 μL of 20× substrate prepared in step 3 to each well and allow this to incubate for 15 minutes at room temperature, shaking the plate for the first two minutes. • 7. Read the fluorescence at λex: 380, λem: 460. (DPcore=[dAla|dSer|Gly]-[boroPro|Pro-nitrile], XXaa=alpha-amino acid)
# physchem = details: water
# [3] = Degradation in aqueous solution of pH about 3 during HPLC purification and lyophilization; details: during HPLC purification and subsequent lyophilization
# [4] = target: recombinant human fibroblast activation protein (FAP) (Homo sapiens (Human), UniProt Q12884); test: In vitro assay fibroblast activation protein IC50 (Example 21); assay type: biochemical
# Chain of recombinant human fibroblast activation protein (FAP) (Q12884 whole entry): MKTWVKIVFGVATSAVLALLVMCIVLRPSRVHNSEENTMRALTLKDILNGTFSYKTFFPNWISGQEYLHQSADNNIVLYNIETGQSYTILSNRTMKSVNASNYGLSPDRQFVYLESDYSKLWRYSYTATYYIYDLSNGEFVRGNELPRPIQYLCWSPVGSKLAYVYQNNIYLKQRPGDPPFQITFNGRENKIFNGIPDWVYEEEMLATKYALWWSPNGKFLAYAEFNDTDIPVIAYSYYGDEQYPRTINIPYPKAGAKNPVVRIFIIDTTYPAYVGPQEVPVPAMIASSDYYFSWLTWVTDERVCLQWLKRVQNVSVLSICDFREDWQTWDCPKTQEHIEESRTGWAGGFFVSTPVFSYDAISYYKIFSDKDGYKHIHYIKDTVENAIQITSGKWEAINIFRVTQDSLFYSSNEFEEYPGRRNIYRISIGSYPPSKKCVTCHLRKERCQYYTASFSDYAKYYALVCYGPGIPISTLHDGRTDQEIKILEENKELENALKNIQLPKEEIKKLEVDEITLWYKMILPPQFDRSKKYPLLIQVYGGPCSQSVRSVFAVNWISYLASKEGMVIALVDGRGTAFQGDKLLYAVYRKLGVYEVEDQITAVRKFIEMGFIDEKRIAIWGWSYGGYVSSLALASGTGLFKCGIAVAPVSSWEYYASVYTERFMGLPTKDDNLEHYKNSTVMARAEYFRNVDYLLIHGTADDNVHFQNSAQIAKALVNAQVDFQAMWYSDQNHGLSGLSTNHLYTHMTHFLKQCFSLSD
# [5] = test system: HEK-mFAP tumor xenografts; test: Efficacy and survival study, single injection of [^177Lu]-6522; assay type: in vivo, Fox Chase SCID mice
# Protocol: The aim of the study was to assess the therapeutic efficacy of a single injection of [^177Lu]-6522 by evaluation tumor growth delay and median survival.
# [^177Lu]-6522 is provided as described in Example 24 above. The following treatment compositions were prepared: • 1. Vehicle (selected formulation, 100 μL) • 2. Precursor (6522 compound) (80 μL) • 3. [.^77Lu]-6522 15 MBq (80 μL) • 4. [.^77Lu]-6522 30 MBq (80 μL) • 5. [.^77Lu]-6522 60 MBq (80 μL)
# A total of 30 HEK-mFAP tumor-bearing mice were used for the study. […]
# Mouse health checks were performed throughout the study on a weekly basis including body weight measurements. Tumor growth was monitored weekly with caliper measurements (tumor volume=length×width^2×0.5). […]. Mice were housed 5 to a cage with ad libitum access to food and water in 20° C. ambient temperature, 40%-50% humidity, and 12-hour light/12-hour dark cycle.
# The mice were randomized into 5 groups, n=6 mice per group. The treatment compositions (1 through 5 above) were injected IV through the tail vein using a catheter (mounted with a 30 Ga needle). Injected doses were determined using a well counter (Capintec calibration). Tumor growth was monitored weekly with caliper measurements, and the mice were followed for survival.
# [6] = test system: HEK-mFAP tumor xenografts
# [7] = Stability of bortezomib with excipients in water, propyleneglycol (PG) or butylene glycol (BG) at 1 mg/mL, 50° C.; assay type: physicochemical; details: with N-Acetyl-L-methionine
# Protocol: In Examples 1-3 below, Tables 1, 2 and 3 summarize the effectiveness of sulfur compounds in stabilizing bortezomib such as against oxidation and decomposition reactions. For each of the following Examples 1-3, the following procedures were used: Samples preparation: 100 mg of the API (active pharmaceutical ingredient) was suspended into 100 mL of water or other ratioed solvents, mixed well by using a vortex mixer and sonicator (with gentle warm if necessary) to make a 1 mg/mL of solution A. 10 mg of each excipient was weighed into avial, and 1 mL of solution A was added, mixed well to give the test solution B (10:1 of excipient/API). Took 100 μL of solution B and diluted into 1 mL with solution A to give the test solution C (1:1 of excipient/API). Took 100 μL of solution C and diluted into 1 mL with solution A to give the test solution D (0.1:1 of excipient/API). For solid powderform of Bortezomib with the excipients, method in US 2005/0282742 A1 was adopted. […]
# Aqueous formulations of bortezomib together with a number of sulfur-containing compounds in varying weight ratios were evaluated for stability over time based on purity of Bortezomib in water, propyleneglycol (PG) or butylene glycol (BG) at 1 mg/mL, 50° C.
# [8] = Solubility in water after lyophilization
smiles,measurement,setting,value
C[C@@H](NC(=O)[C@H]1CC[C@H](CNC(=O)CN2CCN(CC(=O)O)CCN(CC(=O)O)CCN(CC(=O)O)CC2)CC1)C(=O)N1CCC[C@H]1B(O)O [compound 6952],IC50,"[1]; Z-Gly-Pro-AMC, 0.6 nM enzyme",4.6 µM
same,IC50,"[2]; Gly-Pro-AMC, 0.1 nM enzyme",> 100 µM
same,solubility,physchem,> 50 mg/mL
same,degradation in aqueous solution,[3],did not observe any sign of degradation
same,IC50,"[4]; Z-Gly-Pro-AMC, 1.2 nM enzyme",4.7 nM
CC(C)[C@H](NC(=O)CNC(=O)CNC(=O)CN1CCN2CCN3CCN(CC1)CC(=O)O[CH2][Lu]([CH2]COC(=O)C2)[CH2]COC(=O)C3)C(=O)N[C@H](C)C(=O)N1CCC[C@H]1B(O)O [[^177Lu]-6522] (X1-GGV[dA]-boroPro),survival benefit,[5]; 15 and 30 MBq groups,did not translate in a survival benefit
same,tumor growth delay,[5]; 15 and 30 MBq groups,tumor growth delay was observed
same,survival benefit compared to the vehicle or precursor group,[5]; 60 MBq single IV injection,statically significant survival benefit
same,kidneys uptake,"[6]; 4 h p.i., IV",2.35 ± 0.51 % ID/g
same,tumor uptake,"[6]; 4 h p.i., IV, HEK-mFAP tumor-bearing mice",33.04 ± 5.29 % ID/g
same,"Blood uptake, Mean (% ID/g)","[6]; 4 h p.i., IV",0.3063 % ID/g
same,"Blood uptake, Mean (% ID/g)","[6]; 24 h p.i., IV",0.0085 % ID/g
same,"Blood uptake, Mean (% ID/g)","[6]; 48 h p.i., IV",0.0029 % ID/g
same,"Blood uptake, Mean (% ID/g)","[6]; 168 h p.i., IV",0.0015 % ID/g
same,"Bone uptake, Mean (% ID/g)","[6]; 4 h p.i., IV",1.8037 % ID/g
same,"Bone uptake, Mean (% ID/g)","[6]; 24 h p.i., IV",0.2658 % ID/g
same,"Bone uptake, Mean (% ID/g)","[6]; 48 h p.i., IV",0.4106 % ID/g
same,"Bone uptake, Mean (% ID/g)","[6]; 168 h p.i., IV",0.3959 % ID/g
same,"Brain uptake, Mean (% ID/g)","[6]; 4 h p.i., IV",0.0281 % ID/g
same,"Brain uptake, Mean (% ID/g)","[6]; 24 h p.i., IV",0.0036 % ID/g
same,"Brain uptake, Mean (% ID/g)","[6]; 48 h p.i., IV",0.0033 % ID/g
same,"Brain uptake, Mean (% ID/g)","[6]; 168 h p.i., IV",0.0020 % ID/g
same,"Heart uptake, Mean (% ID/g)","[6]; 4 h p.i., IV",0.1528 % ID/g
same,"Heart uptake, Mean (% ID/g)","[6]; 24 h p.i., IV",0.0332 % ID/g
same,"Heart uptake, Mean (% ID/g)","[6]; 48 h p.i., IV",0.0311 % ID/g
same,"Heart uptake, Mean (% ID/g)","[6]; 168 h p.i., IV",0.0256 % ID/g
same,"Kidneys uptake, Mean (% ID/g)","[6]; 4 h p.i., IV",2.3525 % ID/g
same,"Kidneys uptake, Mean (% ID/g)","[6]; 24 h p.i., IV",0.9585 % ID/g
same,"Kidneys uptake, Mean (% ID/g)","[6]; 48 h p.i., IV",0.5318 % ID/g
same,"Kidneys uptake, Mean (% ID/g)","[6]; 168 h p.i., IV",0.1670 % ID/g
same,"Liver uptake, Mean (% ID/g)","[6]; 4 h p.i., IV",0.3774 % ID/g
same,"Liver uptake, Mean (% ID/g)","[6]; 24 h p.i., IV",0.1585 % ID/g
same,"Liver uptake, Mean (% ID/g)","[6]; 48 h p.i., IV",0.1237 % ID/g
same,"Liver uptake, Mean (% ID/g)","[6]; 168 h p.i., IV",0.0725 % ID/g
same,"Lung uptake, Mean (% ID/g)","[6]; 4 h p.i., IV",0.3331 % ID/g
same,"Lung uptake, Mean (% ID/g)","[6]; 24 h p.i., IV",0.0306 % ID/g
same,"Lung uptake, Mean (% ID/g)","[6]; 48 h p.i., IV",0.0312 % ID/g
same,"Lung uptake, Mean (% ID/g)","[6]; 168 h p.i., IV",0.0257 % ID/g
same,"Muscle uptake, Mean (% ID/g)","[6]; 4 h p.i., IV",0.4649 % ID/g
same,"Muscle uptake, Mean (% ID/g)","[6]; 24 h p.i., IV",0.0315 % ID/g
same,"Muscle uptake, Mean (% ID/g)","[6]; 48 h p.i., IV",0.0518 % ID/g
same,"Muscle uptake, Mean (% ID/g)","[6]; 168 h p.i., IV",0.0604 % ID/g
same,"Pancreas uptake, Mean (% ID/g)","[6]; 4 h p.i., IV",0.2167 % ID/g
same,"Pancreas uptake, Mean (% ID/g)","[6]; 24 h p.i., IV",0.0347 % ID/g
same,"Pancreas uptake, Mean (% ID/g)","[6]; 48 h p.i., IV",0.0275 % ID/g
same,"Pancreas uptake, Mean (% ID/g)","[6]; 168 h p.i., IV",0.0197 % ID/g
same,"Skin uptake, Mean (% ID/g)","[6]; 4 h p.i., IV",0.9769 % ID/g
same,"Skin uptake, Mean (% ID/g)","[6]; 24 h p.i., IV",0.1158 % ID/g
same,"Skin uptake, Mean (% ID/g)","[6]; 48 h p.i., IV",0.0906 % ID/g
same,"Skin uptake, Mean (% ID/g)","[6]; 168 h p.i., IV",0.0837 % ID/g
same,"Small intestine uptake, Mean (% ID/g)","[6]; 4 h p.i., IV",0.2091 % ID/g
same,"Small intestine uptake, Mean (% ID/g)","[6]; 24 h p.i., IV",0.0580 % ID/g
same,"Small intestine uptake, Mean (% ID/g)","[6]; 48 h p.i., IV",0.0499 % ID/g
same,"Small intestine uptake, Mean (% ID/g)","[6]; 168 h p.i., IV",0.0277 % ID/g
same,"Spleen uptake, Mean (% ID/g)","[6]; 4 h p.i., IV",0.2587 % ID/g
same,"Spleen uptake, Mean (% ID/g)","[6]; 24 h p.i., IV",0.1418 % ID/g
same,"Spleen uptake, Mean (% ID/g)","[6]; 48 h p.i., IV",0.1340 % ID/g
same,"Spleen uptake, Mean (% ID/g)","[6]; 168 h p.i., IV",0.1437 % ID/g
same,"Stomach uptake, Mean (% ID/g)","[6]; 4 h p.i., IV",0.1706 % ID/g
same,"Stomach uptake, Mean (% ID/g)","[6]; 24 h p.i., IV",0.0528 % ID/g
same,"Stomach uptake, Mean (% ID/g)","[6]; 48 h p.i., IV",0.0331 % ID/g
same,"Stomach uptake, Mean (% ID/g)","[6]; 168 h p.i., IV",0.0210 % ID/g
same,"Tumor uptake, Mean (% ID/g)","[6]; 4 h p.i., IV",33.0435 % ID/g
same,"Tumor uptake, Mean (% ID/g)","[6]; 24 h p.i., IV",12.9944 % ID/g
same,"Tumor uptake, Mean (% ID/g)","[6]; 48 h p.i., IV",7.6749 % ID/g
same,"Tumor uptake, Mean (% ID/g)","[6]; 168 h p.i., IV",3.9910 % ID/g
same,kidneys uptake,"[6]; day 7 p.i., IV",0.17 ± 0.02 % ID/g
same,localization in tumor and normal tissue,[6]; up to 168 h p.i.,high localization in tumor xenografts and low normal tissue uptake
"CSCC[C@H](NC(C)=O)C(=O)O [N-Acetyl-L-methionine, N-acetyl-L-methionine]",protection of bortezomib,[7],essentially complete protection
C[C@@H](NC(=O)c1ccc(CNC(=O)CN2CCN3CCN4CCN(CC2)CC(=O)[O][Lu]([O]C(=O)C3)[O]C(=O)C4)cc1)C(=O)N1CCC[C@H]1B(O)O [6555LU],solubility in water,[8],> 50 mg/mL
same,IC50,[1],3.4 µM
same,IC50,[2],> 100 µM
same,degradation in aqueous solution,[3],did not observe any sign of degradation
same,IC50,[4],14 nM

# — patent US20240207292A1, “BORONIC ACID COMPOUNDS, COMPOSITIONS AND METHODS” (Trustees of Tufts College, priority 2021, published 2024)
